Results: patent US7285564B2, “Substituted 4-amino-1-(pyridylmethyl)piperidine and related compounds” (Theravance, Inc., priority 2002, dated 2007)

System: oxotremorine-induced salivation
Test: In vivo rat salivation assay
Conditions: rat bladder assay vs rat salivation assay
Procedure: Female Sprague-Dawley rats weighing 200 to 300 g were anesthetized with urethane (1.5 g/kg, s.c., Sigma, St. Louis, Mo.), with a supplement of 0.25 g/kg, s.c. urethane as needed. Urethane was administered at a concentration of 0.25 g/mL.
Rats were placed on a heated blanket on their dorsal side in an inclined position (20° angle) position (head down). A swab was placed in the rat's mouth. The test compound or vehicle was administered intravenously via the tail vein. After 5 min., oxotremorine (1.0 mg/kg) was administered subcutaneously. The swab was discarded and
Replaced by a pre-weighed swab. Saliva was then collected for 10 min. and then the swab was removed and re-weighed to determine the output of saliva. Dose-response curves were fitted with a four parameter logistic equation to obtain estimates of ID50 (dose required to produce 50% of the maximal response).
By comparing the ID50 values determined in the rat bladder assay and rat salivation assay, the in vivo bladder/salivation selectivity ratio was calculated for the compounds tested.

## CCN(CC)CC#CCOC(=O)C(O)(c1ccccc1)C1CCCCC1 (centres unmarked) [oxybutynin, reference compound]
  ID50 bladder/salivation selectivity ratio: about 1.4

## Cc1ccc(O)c([C@H](CCN(C(C)C)C(C)C)c2ccccc2)c1 [tolterodine, reference compound]
  ID50 bladder/salivation selectivity ratio: ~4.8
